Each structure is given as a SMILES string. A value given as a limit tells only on which side of the number the result lay.

Results on 25 compounds are retold here after US11247990B1, “Bicyclic fused pyridine compounds as inhibitors of TAM kinases” (ARRAY BIOPHARMA INC., priority 2017, dated 2022).

Chain of His-tagged recombinant human AXL cytoplasmic domain (P30530 473-894): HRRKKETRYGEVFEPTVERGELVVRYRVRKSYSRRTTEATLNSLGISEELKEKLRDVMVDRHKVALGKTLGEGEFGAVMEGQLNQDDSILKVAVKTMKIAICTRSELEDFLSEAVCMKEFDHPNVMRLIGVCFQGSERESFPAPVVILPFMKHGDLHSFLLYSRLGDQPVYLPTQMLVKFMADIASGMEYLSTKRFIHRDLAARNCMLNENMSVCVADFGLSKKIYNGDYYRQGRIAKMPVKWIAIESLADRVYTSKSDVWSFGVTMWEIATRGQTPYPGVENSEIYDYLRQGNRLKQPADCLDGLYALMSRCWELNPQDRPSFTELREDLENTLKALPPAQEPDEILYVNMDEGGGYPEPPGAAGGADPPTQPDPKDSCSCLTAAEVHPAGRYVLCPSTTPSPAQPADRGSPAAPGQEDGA
Chain of His-tagged recombinant human MER cytoplasmic domain (Q12866 527-999): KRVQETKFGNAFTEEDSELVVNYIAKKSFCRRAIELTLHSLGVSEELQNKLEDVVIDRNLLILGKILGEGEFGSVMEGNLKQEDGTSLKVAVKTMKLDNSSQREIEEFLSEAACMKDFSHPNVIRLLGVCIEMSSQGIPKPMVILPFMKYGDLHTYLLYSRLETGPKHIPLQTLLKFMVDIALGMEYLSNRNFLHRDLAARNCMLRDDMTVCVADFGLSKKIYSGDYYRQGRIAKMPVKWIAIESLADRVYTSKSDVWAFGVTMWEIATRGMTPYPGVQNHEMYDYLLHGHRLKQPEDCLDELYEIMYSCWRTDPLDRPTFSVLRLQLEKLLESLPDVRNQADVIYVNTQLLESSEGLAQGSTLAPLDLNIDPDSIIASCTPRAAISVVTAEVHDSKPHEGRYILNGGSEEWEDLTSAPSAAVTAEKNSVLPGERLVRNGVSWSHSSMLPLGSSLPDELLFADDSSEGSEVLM
Chain of GST-tagged recombinant human TYRO3 kinase domain (Q06418 518-790): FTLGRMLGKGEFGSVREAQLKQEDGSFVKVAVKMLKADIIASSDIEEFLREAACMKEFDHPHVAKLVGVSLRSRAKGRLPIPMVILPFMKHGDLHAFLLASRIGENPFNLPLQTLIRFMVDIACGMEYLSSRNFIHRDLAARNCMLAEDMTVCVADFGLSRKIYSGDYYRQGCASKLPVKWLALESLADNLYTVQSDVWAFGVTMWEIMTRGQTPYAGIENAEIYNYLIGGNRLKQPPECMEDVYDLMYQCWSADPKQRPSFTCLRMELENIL

One test concerns the target His-tagged recombinant human AXL cytoplasmic domain (Homo sapiens (Human), UniProt P30530). The test can be described thus: AXL Enzyme Assay (LanthaScreen Eu Kinase Binding, TR-FRET). Particulars: averaged IC50. The procedure: Compounds of Formula I were screened for their ability to inhibit AXL kinase using Invitrogen's LanthaScreen™ Eu Kinase Binding technology. […] After a 60-minute incubation at 22° C., the reaction was measured using a PerkinElmer EnVision multimode plate reader via TR-FRET dual wavelength detection, and the percent of control (POC) was calculated using a ratiometric emission factor. […] The POC values are fit to a 4 parameter logistic curve and the IC50 value is point where the curve crosses 50 POC.
A general note: Time-resolved FRET reads energy transfer from a long-lived donor to a nearby acceptor.
As a reminder, the IC50 is the concentration that inhibits the measured activity by half. Take `CNc1cc2c(cn1)c(-c1ccc(CN3CCN(C)CC3)cc1)nn2[C@H]1CC[C@@H](Oc2ccc(=O)n(C)n2)CC1` [Example 27, 2-methyl-6-(((1s,4s)-4-(6-(methylamino)-3-(4-((4-methylpiperazin-1-yl)methyl)phenyl)-1H-pyrazolo[4,3-c]pyridin-1-yl)cyclohexyl)oxy)pyridazin-3(2H)-one]: the 50% inhibitory concentration (IC50) was below 10 nM.
Still for that read-out and setting: in the case of `CCn1nc(O[C@H]2CC[C@@H](n3nc(-c4ccc(CN5CCN(C)CC5)cc4)c4cnc(NC)cc43)CC2)ccc1=O` [Example 79, 2-ethyl-6-(((1s,4s)-4-(6-(methylamino)-3-(4-((4-methylpiperazin-1-yl)methyl)phenyl)-1H-pyrazolo[4,3-c]pyridin-1-yl)cyclohexyl)oxy)pyridazin-3(2H)-one] it was below 10 nM; in that of `CNc1cc2c(cn1)c(-c1cnn(C)c1)nn2[C@H]1CC[C@@H](Oc2ncccc2F)CC1` [Example 122, 1-((1s,4s)-4-((3-fluoropyridin-2-yl)oxy)cyclohexyl)-N-methyl-3-(1-methyl-1H-pyrazol-4-yl)-1H-pyrazolo[4,3-c]pyridin-6-amine], below 10 nM.
Same read-out and setting: in the case of `CNc1cc2c(cn1)c(-c1cnn(C)c1)nn2[C@H]1CC[C@@H](Oc2ncccc2C(F)(F)F)CC1` [Example 125, N-methyl-3-(1-methyl-1H-pyrazol-4-yl)-1-((1s,4s)-4-((3-(trifluoromethyl)pyridin-2-yl)oxy)cyclohexyl)-1H-pyrazolo[4,3-c]pyridin-6-amine] it was below 10 nM; in that of `Cn1cc(-c2nn([C@H]3CC[C@@H](Oc4ncccc4C(F)(F)F)CC3)c3cc(Nc4ccccc4)ncc23)cn1` [Example 306, 3-(1-methyl-1H-pyrazol-4-yl)-N-phenyl-1-((1s,4s)-4-((3-(trifluoromethyl)pyridin-2-yl)oxy)cyclohexyl)-1H-pyrazolo[4,3-c]pyridin-6-amine], 1000 to 10000 nM.
Same read-out and setting: the result for `CNc1cc2c(cn1)c(-c1cnn(C)c1)nn2[C@H]1CC[C@@H](Oc2ccc(F)cc2CN(C)C)CC1` [Example 370, 1-((1s,4s)-4-(2-((dimethylamino)methyl)-4-fluorophenoxy)cyclohexyl)-N-methyl-3-(1-methyl-1H-pyrazol-4-yl)-1H-pyrazolo[4,3-c]pyridin-6-amine] reads below 10 nM; that for `Cn1cc(-c2nn([C@H]3CC[C@@H](Oc4ccccc4F)CC3)c3cc(NCCC4CC4)ncc23)cn1` [Example 402, N-(2-cyclopropylethyl)-1-((1s,4s)-4-(2-fluorophenoxy)cyclohexyl)-3-(1-methyl-1H-pyrazol-4-yl)-1H-pyrazolo[4,3-c]pyridin-6-amine], 1000 to 10000 nM; that for `CCNc1cc2c(cn1)c(-c1cnn(C)c1)nn2[C@H]1CC[C@@H](Oc2ccc(C(=O)NC)cc2F)CC1` [Example 460, 4-(((1s,45)-4-(6-(ethylamino)-3-(1-methyl-1H-pyrazol-4-yl)-1H-pyrazolo[4,3-c]pyridin-1-yl)cyclohexyl)oxy)-3-fluoro-N-methylbenzamide], below 10 nM.
On to `Cn1cc(-c2nn([C@H]3CC[C@@H](Oc4cccc(F)c4F)CC3)c3cc(Nc4ccccc4)ncc23)cn1` [Example 486, 1-((1s,4s)-4-(2,3-difluorophenoxy)cyclohexyl)-3-(1-methyl-1H-pyrazol-4-yl)-N-phenyl-1H-pyrazolo[4,3-c]pyridin-6-amine], for which the concentration for half-maximal inhibition (IC50) fell in the range of 1000 to 10000 nM.

The target of the next test is His-tagged recombinant human MER cytoplasmic domain (Homo sapiens (Human), UniProt Q12866). As to the kind of experiment: MER Enzyme Assay (LanthaScreen Eu Kinase Binding, TR-FRET). The following applies: averaged IC50. The procedure:
Compounds of Formula I were screened for their ability to inhibit MER kinase using Invitrogen's LanthaScreen™ Eu Kinase Binding technology. […] After a 60-minute incubation at 22° C., the reaction was measured using a PerkinElmer EnVision multimode plate reader via TR-FRET dual wavelength detection, and the percent of control (POC) was calculated using a ratiometric emission factor. […] The POC values are fit to a 4 parameter logistic curve and the IC50 value is point where the curve crosses 50 POC.
Take `CNc1cc2c(cn1)c(-c1ccc(CN3CCN(C)CC3)cc1)nn2[C@H]1CC[C@@H](Oc2ccc(=O)n(C)n2)CC1` [Example 27, 2-methyl-6-(((1s,4s)-4-(6-(methylamino)-3-(4-((4-methylpiperazin-1-yl)methyl)phenyl)-1H-pyrazolo[4,3-c]pyridin-1-yl)cyclohexyl)oxy)pyridazin-3(2H)-one]: the IC50 is below 10 nM.
The same measure, in the same setting: the result for `CNc1cc2c(cn1)c(-c1cnn(C)c1)nn2[C@H]1CC[C@@H](Oc2ncccc2F)CC1` [Example 122, 1-((1s,4s)-4-((3-fluoropyridin-2-yl)oxy)cyclohexyl)-N-methyl-3-(1-methyl-1H-pyrazol-4-yl)-1H-pyrazolo[4,3-c]pyridin-6-amine] reads below 10 nM; that for `CNc1cc2c(cn1)c(-c1cnn(C)c1)nn2[C@H]1CC[C@@H](Oc2ncccc2C(F)(F)F)CC1` [Example 125, N-methyl-3-(1-methyl-1H-pyrazol-4-yl)-1-((1s,4s)-4-((3-(trifluoromethyl)pyridin-2-yl)oxy)cyclohexyl)-1H-pyrazolo[4,3-c]pyridin-6-amine], below 10 nM.

A further test addresses GST-tagged recombinant human TYRO3 kinase domain (Homo sapiens (Human), UniProt Q06418). The test can be described thus: TYRO3 Enzyme Assay (LanthaScreen Eu Kinase Binding, TR-FRET). The following applies: averaged IC50. The procedure: Compounds of Formula I were screened for their ability to inhibit TYRO3 kinase using Invitrogen's LanthaScreen™ Eu Kinase Binding technology. […] After a 60-minute incubation at 22° C., the reaction was measured using a PerkinElmer EnVision multimode plate reader via TR-FRET dual wavelength detection, and the percent of control (POC) calculated using a ratiometric emission factor. […] The POC values were fit to a 4 parameter logistic curve and the IC50 value is point where the curve crosses 50 POC.
With `CCNc1cc2c(cn1)c(-c1cnn(C)c1)nn2[C@H]1CC[C@@H](Oc2cnn(C)c2C)CC1` [Example 226, 1-((1s,4s)-4-((1,5-dimethyl-1H-pyrazol-4-yl)oxy)cyclohexyl)-N-ethyl-3-(1-methyl-1H-pyrazol-4-yl)-1H-pyrazolo[4,3-c]pyridin-6-amine], the IC50 fell in the range of 1000 to 10000 nM.
Consider `CNC(=O)c1ncccc1O[C@H]1CC[C@@H](n2nc(-c3cnn(C)c3)c3cnc(NC)cc32)CC1` [Example 276, N-methyl-3-(((1s,4s)-4-(3-(1-methyl-1H-pyrazol-4-yl)-6-(methylamino)-1H-pyrazolo[4,3-c]pyridin-1-yl)cyclohexyl)oxy)picolinamide], for which the IC50 was 1000 to 10000 nM.
Still for that read-out and setting: the result for `CNc1cc2c(cn1)c(-c1cnn(C)c1)nn2[C@H]1CC[C@@H](Oc2cccnc2C(=O)N(C)C)CC1` [Example 277, N,N-dimethyl-3-(((1s,4s)-4-(3-(1-methyl-1H-pyrazol-4-yl)-6-(methylamino)-1H-pyrazolo[4,3-c]pyridin-1-yl)cyclohexyl)oxy)picolinamide] reads 1000 to 10000 nM; that for `CNc1cc2c(cn1)c(-c1cnn(C)c1)nn2[C@H]1CC[C@@H](Oc2cccc(OCC(F)(F)F)n2)CC1` [Example 302, N-methyl-3-(1-methyl-1H-pyrazol-4-yl)-1-((1s,4s)-4-((6-(2,2,2-trifluoroethoxy)pyridin-2-yl)oxy)cyclohexyl)-1H-pyrazolo[4,3-c]pyridin-6-amine], 1000 to 10000 nM.
The same measure, in the same setting: the result for `Cn1cc(-c2nn([C@H]3CC[C@@H](Oc4cn(C)nc4C(F)(F)F)CC3)c3cc(Nc4ccccc4)ncc23)cn1` [Example 303, 3-(1-methyl-1H-pyrazol-4-yl)-1-((1s,4s)-4-((1-methyl-3-(trifluoromethyl)-1H-pyrazol-4-yl)oxy)cyclohexyl)-N-phenyl-1H-pyrazolo[4,3-c]pyridin-6-amine] reads below 10 nM.
Still for that read-out and setting: in the case of `Cn1cc(-c2nn([C@H]3CC[C@@H](Oc4cccnc4C(F)(F)F)CC3)c3cc(Nc4ccccc4)ncc23)cn1` [Example 304, 3-(1-methyl-1H-pyrazol-4-yl)-N-phenyl-1-((1s,4s)-4-((2-(trifluoromethyl)pyridin-3-yl)oxy)cyclohexyl)-1H-pyrazolo[4,3-c]pyridin-6-] it was below 10 nM; in that of `CCNc1cc2c(cn1)c(C1CCCC1)nn2[C@H]1CC[C@@H](Oc2nccc(C(F)(F)F)c2F)CC1` [Example 321, 3-cyclopentyl-N-ethyl-1-((1s,4s)-4-((3-fluoro-4-(trifluoromethyl)pyridin-2-l)oxy)cyclohexyl)-1H-pyrazolo[4,3-c]pyridin-6-amine], 1000 to 10000 nM.
Turning to `CCNc1cc2c(cn1)c(C1CCCCC1)nn2[C@H]1CC[C@@H](Oc2nccc(C(F)(F)F)c2F)CC1` [Example 322, 3-cyclohexyl-N-ethyl-1-((1s,4s)-4-((3-fluoro-4-(trifluoromethyl)pyridin-2-yl)oxy)cyclohexyl)-1H-pyrazolo[4,3-c]pyridin-6-amine], the half-inhibitory concentration (IC50) lay within 1000 to 10000 nM.
`CCCNc1cc2c(cn1)c(-c1cnn(C)c1)nn2[C@H]1CC[C@@H](Oc2ccccc2F)CC1` [Example 405, 1-((1s,4s)-4-(2-fluorophenoxy)cyclohexyl)-3-(1-methyl-1H-pyrazol-4-yl)-N-propyl-1H-pyrazolo[4,3-c]pyridin-6-amine]: the IC50 is below 10 nM.
As to `CNc1cc2c(cn1)c(-c1cnn(C)c1)nn2[C@H]1CC[C@@H](Oc2cccc(C(=O)N(C)C)c2)CC1` [Example 454], the IC50 lay in the range of 1000 to 10000 nM.
As to `CNc1cc2c(cn1)c(-c1cnn(C)c1)nn2[C@H]1CC[C@@H](Oc2cccc(C(=O)NC(C)C)c2)CC1` [Example 455, N-isopropyl-3-(((1s,4s)-4-(3-(1-methyl-1H-pyrazol-4-yl)-6-(methylamino)-1H-pyrazolo[4,3-c]pyridin-1-yl)cyclohexyl)oxy)benzamide], the concentration for half-maximal inhibition (IC50) lay in the range of 1000 to 10000 nM.
In the case of `CNc1cc2c(cn1)c(-c1cnn(C)c1)nn2[C@H]1CC[C@@H](Oc2ccc(C(=O)N(C)C)cc2)CC1` [Example 457, N,N-dimethyl-4-(((1s,4s)-4-(3-(1-methyl-1H-pyrazol-4-yl)-6-(methylamino)-1H-pyrazolo[4,3-c]pyridin-1-yl)cyclohexyl)oxy)benzamide], the IC50 fell in the range of 1000 to 10000 nM.
On the same count and under the same terms, in the case of `CNc1cc2c(cn1)c(-c1cnn(C)c1)nn2[C@H]1CC[C@@H](Oc2ccc(C(=O)NC(C)C)cc2)CC1` [Example 458, N-isopropyl-4-(((1s,4s)-4-(3-(1-methyl-1H-pyrazol-4-yl)-6-(methylamino)-1H-pyrazolo[4,3-c]pyridin-1-yl)cyclohexyl)oxy)benzamide] it was 1000 to 10000 nM.
On to `CNc1cc2c(cn1)c(-c1cnn(C)c1)nn2[C@H]1CC[C@@H](Oc2ccc(C(=O)NCCOC)cc2)CC1` [Example 459, N-(2-methoxyethyl)-4-(((1s,4s)-4-(3-(1-methyl-1H-pyrazol-4-yl)-6-(methylamino)-1H-pyrazolo[4,3-c]pyridin-1-yl)cyclohexyl)oxy)benzamide], for which the IC50 was 1000 to 10000 nM.
On the same count and under the same terms, in the case of `CNc1cc2c(cn1)c(-c1cnn(C)c1)nn2[C@H]1CC[C@@H](Oc2cccc(C(=O)NC(C)C)c2F)CC1` [Example 466, 2-fluoro-N-isopropyl-3-(((1s,4s)-4-(3-(1-methyl-1H-pyrazol-4-yl)-6-(methylamino)-1H-pyrazolo[4,3-c]pyridin-1-yl)cyclohexyl)oxy)benzamide] it was 1000 to 10000 nM; in that of `CCNc1cc2c(cn1)c(-c1cnn(C)c1)nn2[C@H]1CC[C@H](Oc2cccc(F)c2)CC1` [Example 475, N-ethyl-1-((1r,4r)-4-(3-fluorophenoxy)cyclohexyl)-3-(1-methyl-1H-pyrazol-4-yl)-1H-pyrazolo[4,3-c]pyridin-6-amine], 1000 to 10000 nM.
